Laboratory results as given in patent US20030220482A1, “Novel peptide antagonist of CXCR4 derived from the N-terminus of the viral chemokine vMIP-II” (priority 2000, published 2003).
“Also recorded” adds a separate entry of the source. Peptide text beside a SMILES is read from it.

Columns and labels:
Sup T1 cells = assay: Chemotaxis of Sup T1 cells induced by SDF-1; assay type: cell-based
Description: Migration of Sup T1 cells was assessed in disposable Transwell trays (Costar, Cambridge, Mass.) with 6.5 -mm diameter chambers and membrane pore size of […]. […] For peptide inhibition experiments, the cells were preincubated with various concentrations of the peptide for 15 min at 25° C. The peptide at the same concentration was also added to the lower well. After incubation at 37° C. and 5% CO2 for 4 h, cells that migrated to the lower well were counted. Chemotactic migration was determined by subtraction of cells migrated in medium alone (Blank control experiment).

CXCR4 [1] = biological target: T1, CXCR4 (Homo sapiens, UniProt P61073); assay: 125I-SDF-1α competitive binding to CXCR4 (CEM-T4 cells); set-up: endogenous in cells; host or cells: CEM-T4 cells; details: for CXCR4 binding (in words): 125I-SDF-1α competitive binding, FIG. 1
T1 sequence (P61073 whole entry): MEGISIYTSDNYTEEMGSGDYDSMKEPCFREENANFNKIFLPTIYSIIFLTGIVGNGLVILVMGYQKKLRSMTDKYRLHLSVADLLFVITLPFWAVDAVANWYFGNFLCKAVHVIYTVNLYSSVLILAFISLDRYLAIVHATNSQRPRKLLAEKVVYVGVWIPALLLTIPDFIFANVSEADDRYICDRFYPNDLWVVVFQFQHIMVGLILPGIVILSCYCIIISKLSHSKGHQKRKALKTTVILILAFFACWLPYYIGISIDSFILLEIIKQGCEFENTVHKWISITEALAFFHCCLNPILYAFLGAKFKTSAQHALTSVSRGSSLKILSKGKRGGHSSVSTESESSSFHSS
Description: ^125I-SDF-1α Competitive Binding to CXCR4
CEM-T4 cells were harvested and washed twice with PBS. […] Nonspecific binding was determined by the addition of 100 nM unlabeled SDF-1α Samples were incubated for 60 min at room temperature. The incubation was terminated by separating the cells from the binding buffer by centrifugation and washing once with 500 μl of cold binding buffer. Bound ligands were quantitated by counting γ emissions.

CXCR4 [2] = biological target: T1, CXCR4; assay: anti-CXCR4 mAb 12G5 competitive binding (flow cytometry, Sup T1 cells); set-up: endogenous in cells; details: relative to SDF-1
Description: Sup T1 cells (2×10^5) were washed with FACS buffer (0.5% bovine serum albumin, 0.05% sodium azide in PBS) and incubated with an anti-CXCR4 monoclonal antibody (mAb) 12G5 (10 μg/ml) for 30 min at 4° C. After washing with FACS buffer, cells were incubated with 10 μg FITC conjugated goat anti-mouse IgG (Southern Biotechnology Associates, Inc. Birmingham, Ala.) for 30 min at 4° C. After washing twice with FACS buffer, cells were fixed in the fixing buffer (2% palaformaldehyde in PBS) and then analyzed on a FACScan flow cytometer (Coulter EPICS Elite, Coolten Corp., Hialeah, Fla.).

CXCR4 [3] = biological target: T1, CXCR4; assay: CXCR4 internalization; assay type: cell-based; set-up: CEM-T4 cells were harvested and washed twice with PBS; endogenous in cells; host or cells: CEM-T4 cells
CCR5 [4] = biological target: T2, CCR5 (Homo sapiens, UniProt P51681); assay: 125I-MIP-1β competitive binding to CCR5 (CCR5-transfected 293 cells); details: competitive binding with radiolabeled MIP-1β
T2 construct: expressed in transfected cells; host or cells: 293 cells
T2 sequence (P51681 whole entry): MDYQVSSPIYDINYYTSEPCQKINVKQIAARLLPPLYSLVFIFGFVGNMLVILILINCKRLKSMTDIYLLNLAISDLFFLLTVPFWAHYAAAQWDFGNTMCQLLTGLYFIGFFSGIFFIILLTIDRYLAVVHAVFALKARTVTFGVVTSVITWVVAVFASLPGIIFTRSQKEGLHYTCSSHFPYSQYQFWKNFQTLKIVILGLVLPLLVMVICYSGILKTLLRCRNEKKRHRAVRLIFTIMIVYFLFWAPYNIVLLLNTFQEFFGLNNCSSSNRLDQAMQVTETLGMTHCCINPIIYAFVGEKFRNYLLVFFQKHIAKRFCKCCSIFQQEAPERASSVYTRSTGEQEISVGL
From the text: ^125I-MIP-1β Competitive Binding to CCR5
Following a similar experimental procedure as described above, 293 cells transfected with CCR5 and ^125I-MIP-1β were used to determine the specific binding activity of peptides to CCR5.

CCR5 [5] = biological target: T2, CCR5; assay: Gene reporter cell-cell fusion assay, HIV-1 coreceptor function of CCR5; assay type: cell-based
CCR5 [6] = biological target: T2, CCR5; assay: Intracellular calcium influx in CCR5 transfected 293 cells; assay type: cell-based
Description: (§1) Sup T1 cells and CCR5 transfected 293 cells were used to measure the intracellular calcium influx. [Ca^2+]i was measured using excitation at 340 and 380 nm on a fluorescence spectrometer (Perkin Elmer LS50). Calibration was performed using 10% Triton X-100 for total fluorophore release and 0.5 M EGTA to chelate free Ca^2+. Intracellular Ca^2+ concentrations were calculated by using the fluorescence spectrometer measurement program.

CXCR4 [7] = biological target: T1, CXCR4; assay: Intracellular calcium influx in Sup T1 cells; assay type: cell-based; set-up: endogenous in cells
Description: as §1

CXCR4 [8] = biological target: T1, CXCR4; assay: Gene reporter cell-cell fusion assay, HIV-1 coreceptor function of CXCR4; assay type: cell-based; set-up: expressed in transfected cells; host or cells: NIH/3T3 cells; details: for inhibition of T- and dual-tropic HIV-1 gp120-mediated cell-cell fusion via CXCR4 (in words): vSC60 (BH10) T-tropic and 89.6 dual-tropic isolates

CC(C)C[C@H](NC(=O)[C@H](CS)NC(=O)[C@H](CS)NC(=O)[C@H](CCCCN)NC(=O)[C@H](CC(=O)O)NC(=O)[C@@H]1CCCN1C(=O)[C@H](CCCNC(=N)N)NC(=O)[C@H](Cc1c[nH]cn1)NC(=O)[C@H](Cc1c[nH]c2ccccc12)NC(=O)[C@H](CO)NC(=O)[C@H](C)NC(=O)CNC(=O)[C@@H](N)CC(C)C)C(=O)NCC(=O)N[C@@H](Cc1ccc(O)cc1)C(=O)N[C@@H](CCC(N)=O)C(=O)N[C@@H](CCCCN)C(=O)N[C@@H](CCCNC(=N)N)C(=O)N1CCC[C@H]1C(=O)N[C@@H](CC(C)C)C(=O)N1CCC[C@H]1C(N)=O [V1] (H-LGASWHRPDKCCLGYQKRPLP-NH2; N-terminus and C-terminus assumed)
inhibition of chemotactic activity of SDF-1 (in words) (Sup T1 cells): inhibit the chemotactic activity of SDF-1 in a concentration dependent manner | fold less potent than SDF-1, 125I-SDF-1α competition (CXCR4 [1]; relative to SDF-1): ~70 fold | fold less potent than SDF-1, mAb 12G5 competition (CXCR4 [2]): about 33 fold | induction of CXCR4 internalization (in words) (CXCR4 [3]): induction of CXCR4 internalization | CCR5 binding (in words) (CCR5 [4]): did not display any interaction | effect on M-tropic HIV-1 gp120-mediated cell-cell fusion via CCR5 (in words) (CCR5 [5]): displayed no effect | signaling activity via CCR5 (calcium influx, in words) (CCR5 [6]): neither displayed signaling activity | blocking of signal induced by MIP-1β via CCR5 (in words) (CCR5 [6]; MIP-1β 100 nM): nor blocked the signal | blocking of SDF-1 signal (calcium influx, in words) (CXCR4 [7]; peptide 200 μM, SDF-1 100 nM): almost completely blocked SDF-1 signal | signaling activity via CXCR4 (calcium influx, in words) (CXCR4 [7]; various concentrations): did not show any signaling activity | inhibition of T- and dual-tropic HIV-1 gp120-mediated cell-cell fusion via CXCR4 (in words) (CXCR4 [8]): showed inhibition

HRPDKCCLGYQKR (v-MIPII derived peptide) [V2, VMIP-II, 6-18]
CXCR4 binding (in words) (CXCR4 [1]): significant loss in CXCR4 binding; also recorded: does not bind | CCR5 binding (in words) (CCR5 [4]): does not bind | effect on M-tropic HIV-1 gp120-mediated cell-cell fusion via CCR5 (in words) (CCR5 [5]): displayed no effect | effect on CCR5 signal transduction (in words) (CCR5 [6]): did not show any effect | effect on CXCR4 signal transduction (in words) (CXCR4 [7]): did not show any effect | inhibition of T- and dual-tropic HIV-1 gp120-mediated cell-cell fusion via CXCR4 (in words) (CXCR4 [8]): did not show any activity

LGASWHRPDK (v-MIPII derived peptide) [V3, VMIP-II, 1-10]
CXCR4 binding (in words) (CXCR4 [1]): retained some activity

SDF-1: Recombinant human chemokine, Stromal cell Derived Factor-1, a natural CXCR4 ligand, used as control [reference compound]
inhibition of cell-cell fusion (CXCR4 [8]; at 200 nM): 45%
